According to patent US8192962B2, “Processes for detecting toxic substances” (Daikin Industries, Ltd., priority 2001, dated 2012):

Test system: Metabolism protein genes
Experiment: DNA chip mRNA expression in yeast, metabolism protein genes (Table 7)
Assay type: cell-based, Saccharomyces cerevisiae S288C
Experimental: Yeast (Saccharomyces cerevisiae S288C (α SUC2mal mel gap2 CUP1)) were incubated at 25° C. on YPD medium (yeast extract 1%, polypepton 2%, glucose 2%). One of toxic chemical substances was added to the cells at logarithmic growth phase, and the cells were further incubated for two hours. Cells were cultured without any chemical substance in the same condition, and were used as control. Concentrations of the chemical substances were defined to inhibit the growth of the yeast but not lead to death.
After completion of the incubation, the culture was centrifuged to collect the cells. To the cells, sodium acetate buffer (50 mM sodium acetate, 10 mM EDTA, 1% SDS) was added, and the mixture was shaken at 65° C. for five minutes, followed by returning to room temperature, and obtaining the supernatant, of which the procedures were repeated two times. To the supernatant, ½ amount of a solution of phenol/chloroform was added, and the mixture was centrifuged to give a supernatant, which was added with an equal amount of chloroform, and the mixture was centrifuged to give a supernatant. To the supernatant, an equal amount of isopropanol containing 0.3 M sodium acetate was added, and the mixture was allowed to stand at room temperature for 30 minutes, after which the mixture was centrifuged to give a sediment of the whole RNAs. Seventy % ethanol was added to the sediment, and the mixture was again centrifuged to give a sediment, which was then dried and dissolved in water. mRNA was isolated from the whole RNAs as followings. In view of the fact that a poly A chain is attached to the 3′ terminus of mRNA, a polynucleotide having a poly T structure which was immobilized on the surface of latex beads was used to trap the mRNA, and then the mRNA was washed and eluted with spine column (Oligotex-dT30<Super>mRNA Purification Kit, Takara). Reverse transcription of the mRNA was conducted with a reverse transcriptase (Super Script II Reverse Transcriptase; catalogue No. 18064-014, GibcoBRL) using fluorescence-labeled nucleotides to give cDNAs that were introduced with Cy3-dUTP or Cy5-dUTP during the reverse transcription.
The labeled cDNAs were dissolved in TE buffer (10mM Tris-HCl/1 mM EDTA, pH8.0), and the solution was dropped on the DNA chip containing the whole genes of yeast (DNA Chip Research Inc. Japan) so that the cDNAs were hybridized on the DNA chip at 65° C. for over 12 hours. The fluoresces intensity of the DNA chip was read with a scanner, and the ratio relative to the fluorescence intensity resulting from the absence of chemical substance was estimated as the following, which is shown in Tables 1 to 9: […]

## CCCCCCCCCCCCc1ccc(S(=O)(=O)[O-])cc1.[Na+] [(17), sodium dodecylbenzosulfonate]
Yeast gene YJR155W
  The level of expressed mRNA in the presence of chemical substance/The level of expressed mRNA in the absence of chemical substance: 1.3
Yeast gene YKL035W
  The level of expressed mRNA in the presence of chemical substance/The level of expressed mRNA in the absence of chemical substance: 1.0
Yeast gene YKL060C
  level of expressed mRNA in the presence/in the absence of chemical substance: 1.2
Yeast gene YKL091C
  The level of expressed mRNA in the presence of chemical substance/The level of expressed mRNA in the absence of chemical substance: 1.4
Yeast gene YKL104C
  The level of expressed mRNA in the presence of chemical substance/The level of expressed mRNA in the absence of chemical substance: 1.0
Yeast gene YKL148C
  level of expressed mRNA in the presence/in the absence of chemical substance: 0.8
Yeast gene YKL152C
  The level of expressed mRNA in the presence of chemical substance/The level of expressed mRNA in the absence of chemical substance: 1.1
Yeast gene YKL157W
  level of expressed mRNA in the presence/in the absence of chemical substance: 1.2
Yeast gene YKL213C
  The level of expressed mRNA in the presence of chemical substance/The level of expressed mRNA in the absence of chemical substance: 1.4
Yeast gene YKL215C
  The level of expressed mRNA in the presence of chemical substance/The level of expressed mRNA in the absence of chemical substance: 0.8
Yeast gene YKR034W
  level of expressed mRNA in the presence/in the absence of chemical substance: 0.8
Yeast gene YLL058W
  The level of expressed mRNA in the presence of chemical substance/The level of expressed mRNA in the absence of chemical substance: 1.4
Yeast gene YLR006C
  level of expressed mRNA in the presence/in the absence of chemical substance: 1.6
Yeast gene YLR044C
  level of expressed mRNA in the presence/in the absence of chemical substance: 0.9
Yeast gene YLR056W
  level of expressed mRNA in the presence/in the absence of chemical substance: 1.1
Yeast gene YLR058C
  level of expressed mRNA in the presence/in the absence of chemical substance: 0.8
Yeast gene YLR081W
  level of expressed mRNA in the presence/in the absence of chemical substance: 0.7
Yeast gene YLR089C
  level of expressed mRNA in the presence/in the absence of chemical substance: 1.2
Yeast gene YLR180W
  The level of expressed mRNA in the presence of chemical substance/The level of expressed mRNA in the absence of chemical substance: 0.8
Yeast gene YLR273C
  The level of expressed mRNA in the presence of chemical substance/The level of expressed mRNA in the absence of chemical substance: 1.0
Yeast gene YLR284C
  level of expressed mRNA in the presence/in the absence of chemical substance: 2.9
Yeast gene YLR299W
  The level of expressed mRNA in the presence of chemical substance/The level of expressed mRNA in the absence of chemical substance: 1.3
Yeast gene YLR300W
  The level of expressed mRNA in the presence of chemical substance/The level of expressed mRNA in the absence of chemical substance: 0.7
Yeast gene YLR304C
  level of expressed mRNA in the presence/in the absence of chemical substance: 0.5
Yeast gene YLR307W
  The level of expressed mRNA in the presence of chemical substance/The level of expressed mRNA in the absence of chemical substance: 1.1
Yeast gene YLR348C
  The level of expressed mRNA in the presence of chemical substance/The level of expressed mRNA in the absence of chemical substance: 1.1
Yeast gene YLR354C
  level of expressed mRNA in the presence/in the absence of chemical substance: 1.0
Yeast gene YLR372W
  level of expressed mRNA in the presence/in the absence of chemical substance: 0.5
Yeast gene YML022W
  level of expressed mRNA in the presence/in the absence of chemical substance: 0.5
Yeast gene YML054C
  The level of expressed mRNA in the presence of chemical substance/The level of expressed mRNA in the absence of chemical substance: 1.1
Yeast gene YML070W
  The level of expressed mRNA in the presence of chemical substance/The level of expressed mRNA in the absence of chemical substance: 1.2
Yeast gene YML100W
  The level of expressed mRNA in the presence of chemical substance/The level of expressed mRNA in the absence of chemical substance: 1.0
Yeast gene YMR008C
  The level of expressed mRNA in the presence of chemical substance/The level of expressed mRNA in the absence of chemical substance: 3.0
Yeast gene YMR011W
  level of expressed mRNA in the presence/in the absence of chemical substance: 1.3
Yeast gene YMR015C
  level of expressed mRNA in the presence/in the absence of chemical substance: 1.0
Yeast gene YMR020W
  The level of expressed mRNA in the presence of chemical substance/The level of expressed mRNA in the absence of chemical substance: 2.3
Yeast gene YMR083W
  level of expressed mRNA in the presence/in the absence of chemical substance: 0.9
Yeast gene YMR105C
  The level of expressed mRNA in the presence of chemical substance/The level of expressed mRNA in the absence of chemical substance: 1.6
Yeast gene YMR189W
  The level of expressed mRNA in the presence of chemical substance/The level of expressed mRNA in the absence of chemical substance: 1.0
Yeast gene YMR205C
  level of expressed mRNA in the presence/in the absence of chemical substance: 0.6
Yeast gene YMR261C
  level of expressed mRNA in the presence/in the absence of chemical substance: 0.7
Yeast gene YMR271C
  The level of expressed mRNA in the presence of chemical substance/The level of expressed mRNA in the absence of chemical substance: 1.3
Yeast gene YMR296C
  The level of expressed mRNA in the presence of chemical substance/The level of expressed mRNA in the absence of chemical substance: 0.8
Yeast gene YMR323W
  level of expressed mRNA in the presence/in the absence of chemical substance: 1.1
Yeast gene YNL012W
  The level of expressed mRNA in the presence of chemical substance/The level of expressed mRNA in the absence of chemical substance: 1.3
Yeast gene YNL025C
  level of expressed mRNA in the presence/in the absence of chemical substance: 0.7
Yeast gene YNL045W
  The level of expressed mRNA in the presence of chemical substance/The level of expressed mRNA in the absence of chemical substance: 1.1
Yeast gene YNL104C
  The level of expressed mRNA in the presence of chemical substance/The level of expressed mRNA in the absence of chemical substance: 0.9
Yeast gene YNL106C
  The level of expressed mRNA in the presence of chemical substance/The level of expressed mRNA in the absence of chemical substance: 1.1
Yeast gene YNL169C
  The level of expressed mRNA in the presence of chemical substance/The level of expressed mRNA in the absence of chemical substance: 1.1
Yeast gene YNL192W
  level of expressed mRNA in the presence/in the absence of chemical substance: 2.3
Yeast gene YNL231C
  The level of expressed mRNA in the presence of chemical substance/The level of expressed mRNA in the absence of chemical substance: 3.1
Yeast gene YNL322C
  The level of expressed mRNA in the presence of chemical substance/The level of expressed mRNA in the absence of chemical substance: 0.9
Yeast gene YNL331C
  The level of expressed mRNA in the presence of chemical substance/The level of expressed mRNA in the absence of chemical substance: 1.7
Yeast gene YNL332W
  The level of expressed mRNA in the presence of chemical substance/The level of expressed mRNA in the absence of chemical substance: 1.0
Yeast gene YNR019W
  The level of expressed mRNA in the presence of chemical substance/The level of expressed mRNA in the absence of chemical substance: 2.4
Yeast gene YNR033W
  The level of expressed mRNA in the presence of chemical substance/The level of expressed mRNA in the absence of chemical substance: 0.9
Yeast gene YNR059W
  The level of expressed mRNA in the presence of chemical substance/The level of expressed mRNA in the absence of chemical substance: 2.6
Yeast gene YOL058W
  The level of expressed mRNA in the presence of chemical substance/The level of expressed mRNA in the absence of chemical substance: 1.2
Yeast gene YOL086C
  level of expressed mRNA in the presence/in the absence of chemical substance: 1.1
Yeast gene YOL108C
  level of expressed mRNA in the presence/in the absence of chemical substance: 1.5
Yeast gene YOL116W
  level of expressed mRNA in the presence/in the absence of chemical substance: 1.1
Yeast gene YOL126C
  The level of expressed mRNA in the presence of chemical substance/The level of expressed mRNA in the absence of chemical substance: 1.6
Yeast gene YOL153C
  The level of expressed mRNA in the presence of chemical substance/The level of expressed mRNA in the absence of chemical substance: 1.1
Yeast gene YOL156W
  level of expressed mRNA in the presence/in the absence of chemical substance: 0.9
Yeast gene YOL165C
  The level of expressed mRNA in the presence of chemical substance/The level of expressed mRNA in the absence of chemical substance: 1.6
Yeast gene YOR002W
  level of expressed mRNA in the presence/in the absence of chemical substance: 0.9
Yeast gene YOR085W
  level of expressed mRNA in the presence/in the absence of chemical substance: 0.9
Yeast gene YOR099W
  The level of expressed mRNA in the presence of chemical substance/The level of expressed mRNA in the absence of chemical substance: 1.2
Yeast gene YOR103C
  level of expressed mRNA in the presence/in the absence of chemical substance: 1.1
Yeast gene YOR108W
  level of expressed mRNA in the presence/in the absence of chemical substance: 1.1
Yeast gene YOR128C
  level of expressed mRNA in the presence/in the absence of chemical substance: 1.2
Yeast gene YOR130C
  The level of expressed mRNA in the presence of chemical substance/The level of expressed mRNA in the absence of chemical substance: 1.5
Yeast gene YOR142W
  level of expressed mRNA in the presence/in the absence of chemical substance: 0.9
Yeast gene YOR176W
  level of expressed mRNA in the presence/in the absence of chemical substance: 1.2
Yeast gene YOR178C
  level of expressed mRNA in the presence/in the absence of chemical substance: 1.0
Yeast gene YOR251C
  level of expressed mRNA in the presence/in the absence of chemical substance: 0.9
Yeast gene YOR336W
  The level of expressed mRNA in the presence of chemical substance/The level of expressed mRNA in the absence of chemical substance: 1.0
Yeast gene YOR347C
  The level of expressed mRNA in the presence of chemical substance/The level of expressed mRNA in the absence of chemical substance: 1.7
Yeast gene YOR348C
  level of expressed mRNA in the presence/in the absence of chemical substance: 0.9
Yeast gene YPL017C
  The level of expressed mRNA in the presence of chemical substance/The level of expressed mRNA in the absence of chemical substance: 1.3
Yeast gene YPL028W
  level of expressed mRNA in the presence/in the absence of chemical substance: 1.4
Yeast gene YPL057C
  level of expressed mRNA in the presence/in the absence of chemical substance: 2.2
Yeast gene YPL135W
  level of expressed mRNA in the presence/in the absence of chemical substance: 1.5
Yeast gene YPL148C
  level of expressed mRNA in the presence/in the absence of chemical substance: 1.0
Yeast gene YPR026W
  The level of expressed mRNA in the presence of chemical substance/The level of expressed mRNA in the absence of chemical substance: 0.9
Yeast gene YPR113W
  level of expressed mRNA in the presence/in the absence of chemical substance: 1.2
Yeast gene YPR165W
  level of expressed mRNA in the presence/in the absence of chemical substance: 2.3
Yeast gene YPR167C
  The level of expressed mRNA in the presence of chemical substance/The level of expressed mRNA in the absence of chemical substance: 1.7
Yeast gene YPR183W
  level of expressed mRNA in the presence/in the absence of chemical substance: 1.2
